Data on one molecule can be found in publication PMC7016953 (Cells, 2020).

This test relates to T1, mTRPC4ß-YFP.
T1 construct: expressed in transfected cells
Kind of test: Selectivity profiling, fluo-4 [Ca2+]i response, TRPC4. As to conditions: 100 µM. It counts as cell-based, mouse. How it is done: Human embryonic kidney 293 (HEK293) cells were stably transfected with expression plasmids that encode hTRPC3-YFP, hTRPC6-YFP, hTRPC7-YFP, mTRPC4ß-YFP, rTRPV1-CFP, rTRPV2-YFP, rTRPV3-YFP, mTRPV4-YFP, or hTRPM2 as previously described. Cell lines were cultured in Earle’s minimum essential medium (MEM; Sigma, Munich, Germany), supplemented with 10% fetal calf serum (Gibco Thermo Fisher Scientific, Darmstadt, Germany), 2 mM L-glutamine, and required concentrations of geneticin in a range of 0.4–1 mg/mL. A HEK293mTRPC5-YFP cell line was maintained and induced as described before. […] For electrophysiological and single cell [Ca^2+]i imaging experiments, PC12 cells were plated onto 25 mm poly-L-lysine-coated glass coverslips and measured 24–48 h after seeding. […]
The primary compound screen and the generation of concentration response curves in HEK293 cells or in PC12 cells were performed by using a custom-made fluorescence plate imager built into a robotic liquid handling station equipped with a 96-tip multichannel head (Freedom Evo 150, Tecan, Männedorf, Switzerland) as described previously. […] Plates were mounted on the imager, and fluorescence signals were recorded with a cooled Zyla 5.5 camera (Andor, Belfast, UK) through a 515 nm long pass filter. […] When inhibitory potencies were evaluated, a second pipetting step with the respective reference agonist was performed. […]

Regarding `C[C@@H]1CC[C@H]2[C@@H](C)C(=O)O[C@@H]3O[C@@]4(C)CC[C@@H]1[C@]32OO4` [artemisinin], the “[Ca2+]i response, TRPC4” value was “none of the cell lines responded”.
